Data reported in patent publication US20050020550A1, “Selective testicular 11beta-HSD inhibitors and methods of use thereof” (priority 2003, published 2005).

Assays:
rat aortic rings = assay: Contractile response of rat aortic rings to phenylephrine; settings: for contractile response to phenylephrine: rings incubated 24 hours with corticosterone (10 nmol/L) and antisense oligomers (3 μmol/L)
Method: Male Sprague-Dawley (150-200 g) rats were anesthetized with pentobarbital (50 mg/kg IP), and a median sternotomy was performed followed by the rapid removal of the thoracic aorta. The adventitia was removed, but the endothelium was left intact. The aorta was cut into 2-3 mm rings and individual rings were placed into a single well of a twenty four well culture plate and incubated at 37° C. under 95% O2-5% CO2. Each well contained 1 mL of DMEM/F12 containing 1% fetal bovine serum, streptomycin (100 μg/ml), penicillin (100 units/ml) and amphotericin (0.25 μg/ml). Aortic rings were incubated for 24 hours prior to contractility measurements with the following combinations of steroids, and antisense/nonsense oligonucleotides (3 μmol/L): • Corticosterone (10 nmol/L)+11β-HSD2 antisense or 11β-HSD2 nonsense oligomer • Corticosterone (10 nmol/L)+11β-HSD1 antisense or 11β-HSD1 nonsense oligomer • In 11-dehydrocorticosterone experiments with vehicle alone • 11-dehydrocorticosterone (100 nmol/L)+11β-HSD1 Antisense or 11β-HSD1 nonsense oligomer
Antisense phosphorothioate oligonucleotides, targeted to block either 11β-HSD2 or 11β-HSD1 gene expression, were obtained from Research Genetics, Huntsville Ala. Antisense oligomers complementary to 20 bp sequences spanning the ribosome binding/translation start site were used. Oligomer sequences were: 5′-CATAACTGCCGTCCAACAGC-3′ (SEQ ID No.: 2) for 11β-HSD1 Antisense and 5′-AGCCCAGCGCTCCATGACTT-3′ (SEQ ID No. 3) for 11β-HSD2 antisense. In control experiments the corresponding sense sequence was used as the nonsense oligomer. Antisense and nonsense oligomers were added directly to each well at 20 μg/10:1 sterile H2O per well for a final concentration of 3 μmol/L.
For contraction measurements, aortic rings were suspended by tungsten wires with 1 g of tension and placed in a vessel bath containing serum free DMEM/F 12 media at 37° C. aerated with 95% O2-5% CO2, at pH 7.4. Vessels were equilibrated for 20 minutes and then tested with phenylephrine (1 nmol/L−10 μmol/L). Although phenylephrine is structurally not a catecholamine, it is considered to be a functional catecholamine as it activates […]. Due to its favorable stability characteristics, it is widely used as a catecholamine substitute in experiments of this nature. The intensity of contraction was assessed by use of a Narishige micromanipulator and model FT03 force transducer (Grass Instrument Co. West Warwick, R.I.). Measurements were recorded on computer using the Labview 4.1 Virtual Instrument System (National Instruments, Austin, Tex.).

[1] = system: 11β-HSD1-reductase activity; assay: Conversion of 3H-11-dehydrocorticosterone back to corticosterone by aortic rings; set-up: species or system rat
Method: (§1) The effects of 11β-HSD1 and 11β-HSD2 antisense on the inter-conversion of ^3H-corticosterone and ^3H-11-dehydro-corticosterone by aortic rings was also determined. Rings (2-3 mm) obtained in a similar manner as those in the contraction studies, were incubated in 1 ml DMEM/F12 media containing 1% FBS at 37° C. under 95% O2-5% CO2 in 24-well culture plates. Rings were incubated for 24 hours with: • (i) ^3H-corticosterone (10 mmol/L)±11β-HSD2 or 11β-HSD1 antisense (3 μmol/L); control groups received nonsense oligomers. The amount of ^3H-11-dehydro-corticqsterone in the incubation medium after 24 hrs was then measured. The effects of 11β-HSD1 antisense/nonsense were measured in quadruplicate (n=6 aortic rings per well) and the effects of 11β-HSD2 antisense/nonsense in duplicate (n=8 aortic rings per well), • (ii) ^3H-11-dehydro-corticosterone (10 nmol/L)±11β-HSD1 antisense (3 μmol/L); this experiment was performed in duplicate (n=10 aortic rings per well). Control groups were incubated with the appropriate nonsense oligomer. ^3H-corticosterone in the incubation medium after 24 hrs was then measured. In this experiment, aortic rings were also analyzed for ^3H-corticosterone content. Rings from duplicate incubations (total n=20) were blotted dry, pooled and homogenized in 50% methanol using a Polytron. The homogenates were then centrifuged, extracted as below using Sep-Paks and injected onto a HPLC system for analysis.
(§2) Incubation media was collected, ran through a Sep-Pak and eluted with 3 mls of methanol, the eluate was then dried under nitrogen and reconstituted in 500:1 methanol. […] Steroids were observed by monitoring radioactivity on-line with a Packard Radiomatic Flo-One/Beta Series A-500 counter connected to a Dell Optiflex 425 S/L computer. […]
Corticosterone and phenylephrine were obtained from Sigma (St Louis, Mo.), 11-dehydrocorticosterone from Research Plus (Bayonne, N.J.) and ^3H-steroids from New England Nuclear (Boston, Mass.). Where appropriate, data were expressed as mean±SE and analyzed using ANOVA and the Student's t test with Bonferroni modification. […]

11β-HSD enzyme activity = assay: Conversion of 3H-corticosterone to 11-dehydrocorticosterone by aortic rings; set-up: species or system rat; settings: 24 hrs, 3H-corticosterone (10 nM) plus antisense (3 μM), compared to nonsense oligomers
Method: as §1, with “Rings were incubated for 24 hours with: • (i) ^3H-corticosterone (10 mmol/L)±11β-HSD2 or 11β-HSD1 antisense (3 μmol/L); control groups received nonsense oligomers.” left out, “Rings from duplicate incubations (total n=20) were blotted dry, pooled and homogenized in 50% methanol using a Polytron. The homogenates were then centrifuged, extracted as below using Sep-Paks and injected onto a HPLC system for analysis.” left out
as §2

11β-HSD2 Dehydrogenase = molecular target: T1, 11β-HSD2 Dehydrogenase (Homo sapiens, UniProt P80365); assay: Inhibition of 11β-HSD2 dehydrogenase (Table 1); assay type: biochemical
T1 sequence (P80365 1-405): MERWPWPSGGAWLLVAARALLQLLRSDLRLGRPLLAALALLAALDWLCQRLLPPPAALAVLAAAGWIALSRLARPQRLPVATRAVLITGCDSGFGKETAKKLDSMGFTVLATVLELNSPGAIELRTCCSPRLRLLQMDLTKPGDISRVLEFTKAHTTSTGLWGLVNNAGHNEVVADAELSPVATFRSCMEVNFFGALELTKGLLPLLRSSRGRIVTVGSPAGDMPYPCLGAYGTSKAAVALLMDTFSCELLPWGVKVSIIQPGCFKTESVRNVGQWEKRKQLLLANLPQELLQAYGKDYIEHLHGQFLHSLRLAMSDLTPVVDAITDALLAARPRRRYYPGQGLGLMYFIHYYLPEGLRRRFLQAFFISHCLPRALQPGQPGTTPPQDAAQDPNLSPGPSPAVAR

11β-HSD1 Reductase = molecular target: T2, 11β-HSD1 Reductase (Rattus norvegicus, UniProt P16232); assay: Inhibition of 11β-HSD1 reductase (Table 1); assay type: cell-based
T2 construct: an enzyme present in testicular Leydig cells; endogenous in cells; host or cells: freshly prepared rat Leydig cells

11β-HSD1 Dehydrogenase = molecular target: T3, 11β-HSD1 Dehydrogenase (Rattus norvegicus, UniProt P16232); assay: Inhibition of 11β-HSD1 dehydrogenase (Table 1); assay type: cell-based
T3 construct: an enzyme present in testicular Leydig cells; endogenous in cells; host or cells: freshly prepared rat Leydig cells

[2] = with the 11β-HSD1-reductase inhibitor steroid

T2 sequence (P16232 whole entry): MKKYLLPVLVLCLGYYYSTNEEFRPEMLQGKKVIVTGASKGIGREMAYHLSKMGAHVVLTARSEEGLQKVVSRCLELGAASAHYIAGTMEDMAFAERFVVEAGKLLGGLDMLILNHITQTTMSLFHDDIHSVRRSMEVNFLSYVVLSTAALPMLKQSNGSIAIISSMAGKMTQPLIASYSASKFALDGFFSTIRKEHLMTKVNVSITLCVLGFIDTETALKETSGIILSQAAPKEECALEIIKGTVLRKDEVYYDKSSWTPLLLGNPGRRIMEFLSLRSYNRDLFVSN
T3 sequence (P16232 whole entry): as above

11β-HSD1 antisense: Antisense phosphorothioate oligonucleotide blocking 11β-HSD1 gene expression, 5′-CATAACTGCCGTCCAACAGC-3′ (antisense CATAACTGCCGTCCAACAGC; all phosphorothioate, sugars by position and methylation of C not given here; listed as Homo sapiens)
ability of 11-dehydro-corticosterone to amplify the contractile response to phenylephrine (rat aortic rings; rings incubated 24 hours with 11-dehydro-corticosterone (100 nmol/L) and antisense (3 μmol/L), compared to nonsense oligomers): attenuated | contractile response to phenylephrine (rat aortic rings; compared to nonsense oligomers): significantly increased | production of 3H-corticosterone from 3H-11-dehydrocorticosterone ([1]; incubation medium, 24 hours, antisense compared to nonsense oligomers): markedly reduced | production of 3H-corticosterone in aortic ring tissue ([1]; pooled aortic ring tissue (n=20), antisense compared to nonsense oligomers): markedly lower | reduction in the conversion of corticosterone to 11-dehydrocorticosterone (11β-HSD enzyme activity): 21%

11β-HSD2 antisense: Antisense phosphorothioate oligonucleotide blocking 11β-HSD2 gene expression, 5′-AGCCCAGCGCTCCATGACTT-3′ (antisense AGCCCAGCGCTCCATGACTT; all phosphorothioate, sugars by position and methylation of C not given here; listed as Homo sapiens)
contractile response to phenylephrine (rat aortic rings; compared to nonsense oligomers): statistically significant increase | reduction in the conversion of corticosterone to 11-dehydrocorticosterone (11β-HSD enzyme activity): 24%

CC(=O)[C@H]1CC[C@@H]2[C@@H]3CCC4=CC(=O)CC[C@]4(C)[C@@H]3C(=O)C[C@]12C [11-Keto-progesterone]
ability of 11-dehydro-corticosterone to amplify the contractile effects of phenylephrine (rat aortic rings; [2]): diminished | 11β-HSD2 Dehydrogenase (inhibition) (11β-HSD2 Dehydrogenase): Potent Inhibitor | metabolism of 11-dehydro-corticosterone back to corticosterone [1, 2]: decreased | 11β-HSD1 Reductase (inhibition) (11β-HSD1 Reductase): Selective Inhibitor | 11β-HSD1 Dehydrogenase (inhibition) (11β-HSD1 Dehydrogenase): No Inhibition
